The values below come from US5631401A, “Inhibitors of protein farnesyltransferase and squalene synthase” (Abbott Laboratories, priority 1995, dated 1997).

The term inhibition denotes the share of the control response that was lost under treatment.

The experiment deals with T1, Rat brain protein farnesyltransferase (Rattus norvegicus, UniProt Q02293+Q04631).
T1 construct: The enzyme was purified according to Reiss, Y., et al., Cell, 62: 81-88 (1990), utilizing steps one through three; from tissue; host or cells: rat brain
Nature of the experiment: In vitro inhibition of protein farnesyltransferase (biotin-lamin substrate, scintillation proximity assay). To be noted: for inhibition at 10 µM: compared to uninhibited control; for inhibition at 1 µM: 1 μM (footnote *), read-out: % Inhibition at 1 μM (protein farnesyltransferase, values marked *). It counts as biochemical. The procedure:
In vitro inhibition of protein farnesyltransferase may be measured by the following procedure. (Procedures for determination of the inhibition of farnesylation of the oncogene protein Ras are described by Goldstein, et al., J. Biol. Chem., 266: 15575-15578 (1991) and by Singh in U.S. Pat. No. 5,245,061 both of which are incorporated herein by reference.)
Rat brain protein farnesyltransferase activity was measured using the biotin-lamin substrate (which is known to undergo farnesylation in a manner analogous to Ras protein) and radioactive farnesyl diphosphate provided by Amersham Life Science in their commercial scintillation proximity assay kit for the determination of farnesyltransferase. The enzyme was purified according to Reiss, Y., et al., Cell, 62: 81-88 (1990), utilizing steps one through three. The specific activity of the enzyme was approximately 10 nmol substrate farnesylated/mg enzyme/hour. […]

The structures appear in SMILES notation.

With `O=C(O)[C@H]1[C@H](C(=O)N2CCCC(c3ccccc3)C2)[C@H](C(=O)O)[C@H]1C(=O)N1CCCC(c2ccccc2)C1` (relative stereo) [Example 83, (1α,2β,3β,4α)-1,3-Di [(3-phenylpiperidin-1-yl)carbonyl]cyclobutane-2,4-dicarboxylic acid], the inhibition at 10 µM stood at 37%.

Take `CCCN(C[C@H](C)CCCc1ccccc1)C(=O)[C@H]1[C@H](C(=O)O)[C@H](C(=O)N(CCC)C[C@H](C)CCCc2ccccc2)[C@H]1C(=O)O` [Example 82, (1α,2β,3β,4α)-1,3-Di [N-((2R)-2-methyl-5-phenylpentyl)-N-(n-propyl)aminocarbonyl]cyclobutane-2,4-dicarboxylic acid]: the inhibition at 1 µM was 21%.

In the case of `CCCN(Cc1ccc(Oc2nccs2)cc1)C(=O)C1C(C(=O)O)C(C(=O)N(CCC)Cc2ccc(Oc3nccs3)cc2)C1C(=O)O` (centres unmarked) [Example 55], the inhibition at 1 µM stood at 22%.

`CCCN(Cc1ccc(Oc2ccccc2C)cc1)C(=O)C1C(C(=O)O)C(C(=O)N(CCC)Cc2ccc(Oc3ccccc3C)cc2)C1C(=O)O` (stereo not drawn) [Example 50, (1α,2β,3β,4α)-1,3-Di[N-propyl-N-(4-(2-methylphenoxy)benzyl)aminocarbonyl]cyclobutane-2,4-dicarboxylic acid] showed an inhibition at 10 µM of 35%.

On to `COc1ccc2c(c1)CCN(C(=O)C1C(C(=O)O)C(C(=O)N3CCc4cc(OC)ccc4C3)C1C(=O)O)C2` (stereo not drawn) [Example 49, (1α,2β,3β,4α)-1,3-Di[6-methoxy-1,2,3,4-tetrahydroisoquinolin-2-ylcarbonyl]cyclobutane-2,4-dicarboxylic acid], for which at 10 µM the inhibition was 23%.

Consider `O=C(O)[C@H]1[C@H](C(=O)N(CCO)Cc2ccc(Oc3ccccc3)cc2)[C@H](C(=O)O)[C@H]1C(=O)N(CCO)Cc1ccc(Oc2ccccc2)cc1` [Example 74, (1α,2β,3β,4α)-1,3-Di[N-(2-hydroxyethyl)-N-(4-phenoxybenzyl)aminocarbonyl]cyclobutane-2,4-dicarboxylic acid], for which the inhibition at 1 µM came out at 22%.

For `CCCN(Cc1ccc(Oc2ccc3c(c2)OCO3)cc1)C(=O)C1C(C(=O)O)C(C(=O)N(CCC)Cc2ccc(Oc3ccc4c(c3)OCO4)cc2)C1C(=O)O` (stereo not drawn) [Example 48, (1α,2β,3β,4α)-1,3-Di[N-propyl-N-(4-(3,4-methylenedioxyphenoxy)benzyl)aminocarbonyl]cyclobutane-2,4-dicarboxylic acid], the inhibition at 10 µM amounted to 61%.

Regarding `CCCN(CC=C=Cc1ccccc1)C(=O)C1C(C(=O)O)C(C(=O)N(CC=C=Cc2ccccc2)CCC)C1C(=O)O` (stereo not drawn) [Example 60, (1α,2β,3β,4α)-1,3-Di[N-propyl-N-(4-phenyl-2,3-butadien-1-yl)aminocarbonyl]cyclobutane-2,4-dicarboxylic acid], the inhibition at 1 µM was determined as 23%.

`CCCN(Cc1ccc(Oc2ccccc2)o1)C(=O)C1C(C(=O)O)C(C(=O)N(CCC)Cc2ccc(Oc3ccccc3)o2)C1C(=O)O` (stereo not drawn) [Example 52, (1α,2β,3β,4α)-1,3-Di[N-propyl-N-(5-phenoxyfurfuryl)aminocarbonyl]cyclobutane-2,4-dicarboxylic acid] displayed an inhibition at 10 µM of 51%.

Compound `CCCN(Cc1ccc(Oc2ccccc2)cc1)C(=O)C1C(C(=O)O)C(C(=O)N(CCC)Cc2ccc(Oc3ccccc3)cc2)C1C(=O)O` (stereo not drawn) [Example 47, (1α,2β,3β,4α)-1,3-Di[N-propyl-N-(4-phenoxybenzyl)aminocarbonyl]cyclobutane-2,4-dicarboxylic acid] showed an inhibition at 10 µM of 50%.

The compound `CCCN(Cc1ccc(Cn2cccc2)cc1)C(=O)C1C(C(=O)O)C(C(=O)N(CCC)Cc2ccc(Cn3cccc3)cc2)C1C(=O)O` (stereo not drawn) [Example 56, (1α,2β,3β,4α)-1,3-Di[N-propyl-N-(4-(pyrrol-1-ylmethyl)benzyl)aminocarbonyl]cyclobutane-2,4-dicarboxylic acid] displayed an inhibition at 10 µM of 78%.

Take `O=C(O)[C@H]1[C@H](C(=O)OCc2ccc(Oc3ccccc3)cc2)[C@H](C(=O)O)[C@H]1C(=O)OCc1ccc(Oc2ccccc2)cc1` [Example 36, (1α,2β,3β,4α)-1,3-Di[4-phenoxybenzyloxycarbonyl]cyclobutane-2,4-dicarboxylic acid]: testing at 10 µM gave an inhibition of 24%.

For `C[C@H](C/C=C/c1ccccc1)CN(Cc1ccccc1)C(=O)[C@H]1[C@H](C(=O)O)[C@H](C(=O)N(Cc2ccccc2)C[C@H](C)C/C=C/c2ccccc2)[C@H]1C(=O)O` [Example 86, (1α,2β,3β,4α)-1,3-Di [N-benzyl-N-{(E)-(2R)-2-methyl-5-phenyl-4-pentenyl}aminocarbonyl]cyclobutane-2,4-dicarboxylic acid], the inhibition at 1 µM amounted to 61%.

Turning to `CCCN(CCCCOc1ccccc1)C(=O)[C@H]1[C@H](C(=O)O)[C@H](C(=O)N(CCC)CCCCOc2ccccc2)[C@H]1C(=O)O` [Example 39, (1α,2β,3β,4α)-1,3-Di[N-propyl-N-(4-phenoxybutyl)aminocarbonyl]cyclobutane-2,4-dicarboxylic acid], the inhibition at 10 µM is 66%.

Turning to `CCCN(Cc1ccc(Oc2ccccc2)cc1)C(=O)[C@H]1[C@H](C(=O)O)[C@H](C(=O)N(C)CC/C=C(\C)CCC=C(C)C)[C@H]1C(=O)O` (relative stereo) [Example 41, (1α,2β,3β,4α)-1-[N-Propyl-N-(4-phenoxybenzyl)aminocarbonyl]-3-[N-methyl-N-(homogeranyl)aminocarbonyl]cyclobutane-2,4-dicarboxylic acid], 10 µM produced 63% inhibition.

As for `C[C@H](CCCc1ccccc1)CN(Cc1ccccc1)C(=O)[C@H]1[C@H](C(=O)O)[C@H](C(=O)N(Cc2ccccc2)C[C@H](C)CCCc2ccccc2)[C@H]1C(=O)O` [Example 85, (1α,2β,3β,4α)-1,3-Di[N-benzyl-N-((2R)-5-phenyl-2-methylpentyl)aminocarbonyl]cyclobutane-2,4-dicarboxylic acid], the inhibition at 1 µM amounted to 58%.

The compound `CCCN(Cc1ccc(OC2CCCCC2)cc1)C(=O)[C@H]1[C@H](C(=O)O)[C@H](C(=O)N(CCC)Cc2ccc(OC3CCCCC3)cc2)[C@H]1C(=O)O` [Example 37, (1α,2β,3β,4α)-1,3-Di[N-propyl-N-(4-cyclohexyloxybenzyl)aminocarbonyl]cyclobutane-2,4-dicarboxylic acid] yielded an inhibition at 10 µM of 22%.

`O=C(O)[C@H]1[C@H](C(=O)N(Cc2ccc(Oc3ccccc3)cc2)Cc2ccc3oc4ccccc4c3c2)[C@H](C(=O)O)[C@H]1C(=O)N(Cc1ccc(Oc2ccccc2)cc1)Cc1ccc2oc3ccccc3c2c1` [Example 95, (1α,2β,3β,4α)-1,3-Di[N-(dibenzofuran-2-ylmethyl)-N-(4-phenoxybenzyl)aminocarbonyl]cyclobutane-2,4-dicarboxylic acid] showed an inhibition at 10 µM of 55%.

Regarding `CCCN(CC#CCc1ccccc1)C(=O)[C@H]1[C@H](C(=O)O)[C@H](C(=O)N(CC#CCc2ccccc2)CCC)[C@H]1C(=O)O` [Example 61, (1α,2β,3β,4α)-1,3-Di{N-propyl-N-(4-phenylbut-2-yn-1-yl)aminocarbonyl}cyclobutane-2,4-dicarboxylic acid], the inhibition at 10 µM turned out to be 73%.

On to `O=C(O)CN(Cc1ccc(Oc2ccccc2)cc1)C(=O)C1C(C(=O)O)C(C(=O)N(CC(=O)O)Cc2ccc(Oc3ccccc3)cc2)C1C(=O)O` (stereo not drawn) [Example 43, (1α,2β,3β,4α)-1,3-Di[N-carboxymethyl-N-(4-phenoxybenzyl)aminocarbonyl]cyclobutane-2,4-dicarboxylic acid], for which the inhibition at 1 µM came out at 54%.

As to `CCCN(Cc1ccc(COc2ccccc2)cc1)C(=O)C1C(C(=O)O)C(C(=O)N(CCC)Cc2ccc(COc3ccccc3)cc2)C1C(=O)O` (stereo not drawn) [Example 65, (1α,2β,3β,4α)-1,3-Di[N-propyl-N-(4-phenoxymethylbenzyl)aminocarbonyl]-2,4-cyclobutanedicarboxylic acid], the inhibition at 1 µM amounted to 52%.

`CCCN(Cc1ccc(Nc2ccccc2)cc1)C(=O)C1C(C(=O)O)C(C(=O)N(CCC)Cc2ccc(Nc3ccccc3)cc2)C1C(=O)O` (stereo not drawn) [Example 62, (1α,2β,3β,4α)-1,3-Di[N-propyl-N-(4-phenylaminobenzyl)aminocarbonyl]cyclobutane-2,4-dicarboxylic acid] registered an inhibition at 10 µM of 69%.

On to `CC(=O)OC(CCCN(Cc1ccccc1)C(=O)C1C(C(=O)O)C(C(=O)N(CCCC(OC(C)=O)C(C)Cc2ccccc2)Cc2ccccc2)C1C(=O)O)C(C)Cc1ccccc1` (stereo not drawn) [Example 84, (1α,2β,3β,4α)-1,3-Di [N-benzyl-N-{syn-(4-acetoxy-5-methyl) -6-phenylhexyl}aminocarbonyl]cyclobutane-2,4-dicarboxylic acid], for which the inhibition at 1 µM turned out to be 93%.

The compound `CCCN(CCCCCc1ccccc1)C(=O)[C@H]1[C@H](C(=O)O)[C@H](C(=O)N(CCC)CCCCCc2ccccc2)[C@H]1C(=O)O` [Example 38, (1α,2β,3β,4α)-1,3-Di[N-propyl-N-(5-phenylpentyl)aminocarbonyl]cyclobutane-2,4-dicarboxylic acid] returned an inhibition at 10 µM of 85%.

Take `O=C(O)[C@H]1[C@H](C(=O)N(Cc2ccc(Oc3ccccc3)cc2)Cc2ccc3ccccc3c2)[C@H](C(=O)O)[C@H]1C(=O)N(Cc1ccc(Oc2ccccc2)cc1)Cc1ccc2ccccc2c1` [Example 81, (1α,2β,3β,4α)-1,3-Di [N-(4-phenoxybenzyl)-N-(2-methylnaphthyl)aminocarbonyl]cyclobutane-2,4-dicarboxylic acid]: the inhibition at 1 µM amounted to 62%.

`CCCN(C(=O)C1C(C(=O)O)C(C(=O)N(CCC)c2ccc(Oc3ccccc3)cc2)C1C(=O)O)c1ccc(Oc2ccccc2)cc1` (stereo not drawn) [Example 66, (1α,2β,3β,4α)-1,3-Di[N-propyl-N-(4-phenoxyphenyl)aminocarbonyl]cyclobutane-2,4-dicarboxylic acid] displayed an inhibition at 10 µM of 88%.
